These results are taken from patent EP2857388A1, “Azoles containing sulfone” (Grünenthal GmbH, priority 2013, dated 2015).

The experiment has as its target T1, human B1R (Homo sapiens, UniProt P46663).
T1 construct: expressed in transfected cells; host or cells: CHO K1 cells (Chinese Hamster Ovary), stably transfected
T1 sequence (P46663 1-353): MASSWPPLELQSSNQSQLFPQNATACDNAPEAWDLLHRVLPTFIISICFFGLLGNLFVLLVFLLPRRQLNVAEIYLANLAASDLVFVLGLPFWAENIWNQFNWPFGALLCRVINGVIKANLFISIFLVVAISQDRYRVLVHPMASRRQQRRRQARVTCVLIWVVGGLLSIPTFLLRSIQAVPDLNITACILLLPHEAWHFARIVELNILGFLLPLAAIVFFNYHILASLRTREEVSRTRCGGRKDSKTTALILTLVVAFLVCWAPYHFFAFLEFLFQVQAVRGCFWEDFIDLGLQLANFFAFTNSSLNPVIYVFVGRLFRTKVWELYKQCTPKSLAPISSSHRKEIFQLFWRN
The experiment is described as follows: Functional assay at bradykinin receptor 1 (B1R): Ca2+ fluorescence (Fluo-4) in FLIPR/Novostar, antagonist mode. Format: cell-based. The settings on record: test substance 10 µM, CHO K1 cells stably transfected with human B1R gene (hB1R-Zellen), agonist Lys-Des-Arg9-Bradykinin at EC80, % inhibition relative to maximal achievable inhibition; for inhibition at 10 µM: read-out: % Inhibierung (human B1R) bei 10 µM. The procedure, abridged:
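Antagonism read as suppression of the Ca2+ rise in Fluo-4-loaded, hB1R-transfected CHO K1 cells when Lys-Des-Arg9-bradykinin (EC80) follows a 6–20 min compound preincubation. Maximal fluorescence counts, measured on FLIPR or Novostar, yield % inhibition relative to maximum; IC50 values come from concentration series run in duplicate or triplicate.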

Consider `COc1cc(C)c(S(=O)(=O)Cc2noc(CC(=O)N(C)C3CCN(c4ncnc5ccccc45)CC3)n2)c(C)c1` [SC-63, 2-[3-[[(4-Methoxy-2,6-dimethyl-phenyl)sulfonyl]-methyl]-[1,2,4]oxadiazol-5-yl]-N-methyl-N-(1-chinazolin-4-yl-piperidin-4-yl)-acetamid], for which the inhibition at 10 µM worked out at 100%.
With `COc1cc(C)c(S(=O)(=O)Cc2noc(CC(=O)N(C)C3CCC(N4CCC(OC)CC4)CC3)n2)c(C)c1` (stereo not drawn) [SC-64, 2-[3-[[(4-Methoxy-2,6-dimethyl-phenyl)sulfonyl]-methyl]-[1,2,4]oxadiazol-5-yl]-N-[4-(4-methoxy-piperidin-1-yl)-cyclohexyl]-N-methyl-acetamid], the inhibition at 10 µM worked out at 100%.
`COc1cc(C)c(S(=O)(=O)Cc2noc(CC(=O)N(C)C3CCN(Cc4ccc(N5CCCC5)nc4)CC3)n2)c(C)c1` [SC-65, 2-[3-[[(4-Methoxy-2,6-dimethyl-phenyl)sulfonyl]-methyl]-[1,2,4]oxadiazol-5-yl]-N-methyl-N-[1-[(6-pyrrolidin-1-yl-pyridin-3-yl)-methyl]-piperidin-4-yl]-acetamid]: the inhibition at 10 µM was found to be 100%.
Still for that read-out and setting: the same measure for `COc1cc(C)c(S(=O)(=O)Cc2noc(CC(=O)N(C)C3CCN(c4ccnc(N(C)C)n4)CC3)n2)c(C)c1` [SC-66, N-[1-(2-Dimethylamino-pyrimidin-4-yl)-piperidin-4-yl]-2-[3-[[(4-methoxy-2,6-dimethyl-phenyl)-sulfonyl]-methyl]-[1,2,4]oxadiazol-5-yl]-N-methyl-acetamid]: 100%; for `COc1cc(C)c(S(=O)(=O)Cc2noc(CC(=O)N(C)C3CCN(c4ccnc(N(C)C)c4)CC3)n2)c(C)c1` [SC-67, N-[1-(2-Dimethylamino-pyridin-4-yl)-piperidin-4-yl]-2-[3-[[(4-methoxy-2,6-dimethyl-phenyl)-sulfonyl]-methyl]-[1,2,4]oxadiazol-5-yl]-N-methyl-acetamid]: 100%; for `COc1cc(C)c(S(=O)(=O)Cc2noc(C(=O)N(C)C3CCN(c4ccnc(N(C)C)n4)CC3)n2)c(C)c1` [SC-68, N-[1-(2-Dimethylamino-pyrimidin-4-yl)-piperidin-4-yl]-3-[[(4-methoxy-2,6-dimethyl-phenyl)sulfonyl]-methyl]-N-methyl-[1,2,4]oxadiazol-5-carbonsäure amid]: 100%.
Turning to `COc1cc(C)c(S(=O)(=O)Cc2noc(C(=O)N(C)C3CCN(c4ccnc(N(C)C)c4)CC3)n2)c(C)c1` [SC-69, N-[1-(2-Dimethylamino-pyridin-4-yl)-piperidin-4-yl]-3-[[(4-methoxy-2,6-dimethyl-phenyl)sulfonyl]-methyl]-N-methyl-[1,2,4]oxadiazol-5-carbonsäure amid], the inhibition at 10 µM amounted to 100%.
On to `COc1cc(C)c(S(=O)(=O)Cc2noc(CC(=O)N(C)C3CCN(c4ccncc4F)CC3)n2)c(C)c1` [SC-70, N-[1-(3-Fluor-pyridin-4-yl)-piperidin-4-yl]-2-[3-[[(4-methoxy-2,6-dimethyl-phenyl)sulfonyl]-methyl]-[1,2,4]oxadiazol-5-yl]-N-methyl-acetamid], for which the inhibition at 10 µM is 100%.
On the same count and under the same terms, the same measure for `COc1cc(C)c(S(=O)(=O)Cc2noc(CC(=O)N(C)C3CCN(Cc4cc(C)no4)CC3)n2)c(C)c1` [SC-72, 2-[3-[[(4-Methoxy-2,6-dimethyl-phenyl)sulfonyl]-methyl]-[1,2,4]oxadiazol-5-yl]-N-methyl-N-[1-[(3-methyl-isoxazol-5-yl)-methyl]-piperidin-4-yl]-acetamid]: 100%.
Consider `COc1cc(C)c(S(=O)(=O)Cc2noc(C(=O)N(C)C3CCN(c4ccncc4F)CC3)n2)c(C)c1` [SC-82, N-[1-(3-Fluor-pyridin-4-yl)-piperidin-4-yl]-3-[[(4-methoxy-2,6-dimethyl-phenyl)sulfonyl]-methyl]-N-methyl-[1,2,4]oxadiazol-5-carbonsäure amid], for which the inhibition at 10 µM was determined as 98%.
Still for that read-out and setting: as for `COc1cc(C)c(S(=O)(=O)Cc2c(C)nn(CC(=O)N(C)[C@H]3CCC[C@@H](N4CCN(C)CC4)C3)c2C)c(C)c1` [SC-83, 2-[4-[[(4-Methoxy-2,6-dimethyl-phenyl)sulfonyl]-methyl]-3,5-dimethyl-1H-pyrazol-1-yl]-N-methyl-N-[(1S,3R)-3-(4-methyl-piperazin-1-yl)-cyclohexyl]-acetamid], the figure is 100%; as for `COc1cc(C)c(S(=O)(=O)Cc2cn(CC(=O)N(C)[C@H]3CCC[C@@H](N4CCN(C)CC4)C3)nn2)c(C)c1` [SC-84, 2-[4-[[(4-Methoxy-2,6-dimethyl-phenyl)sulfonyl]-methyl]-1H-[1,2,3]triazol-1-yl]-N-methyl-N-[(1S,3R)-3-(4-methyl-piperazin-1-yl)-cyclohexyl]-acetamid], 100%.
Still for that read-out and setting: as for `COc1cc(C)c(S(=O)(=O)Cc2noc(CC(=O)N(C)C3CCN(c4ccncc4)C(=O)C3)n2)c(C)c1` (stereo not drawn) [SC-85, 2-[3-[[(4-Methoxy-2,6-dimethyl-phenyl)sulfonyl]-methyl]-[1,2,4]oxadiazol-5-yl]-N-methyl-N-(2-oxo-1-pyridin-4-yl-piperidin-4-yl)-acetamid], the figure is 100%.
Still for that read-out and setting: as for `COc1cc(C)c(S(=O)(=O)Cc2nnc(C(=O)N3CCC(CN4CCN(C)CC4)C3)o2)c(C)c1` (stereo not drawn) [SC-86, [5-[[(4-Methoxy-2,6-dimethyl-phenyl)sulfonyl]-methyl]-[1,3,4]oxadiazol-2-yl]-[3-[(4-methyl-piperazin-1-yl)-methyl]-pyrrolidin-1-yl]-methanon], the figure is 100%.
As to `COc1cc(C)c(S(=O)(=O)Cc2nnc(C(=O)NC3CCNCC3(C)C)o2)c(C)c1` (stereo not drawn) [SC-87, N-(3,3-Dimethyl-piperidin-4-yl)-5-[[(4-methoxy-2,6-dimethyl-phenyl)sulfonyl]-methyl]-[1,3,4]oxadiazol-2-carbonsäure amid], the inhibition at 10 µM was found to be 98%.
In the case of `COc1cc(C)c(S(=O)(=O)Cc2nc(C(=O)N3CCC(CN4CCN(C)CC4)C3)no2)c(C)c1` (stereo not drawn) [SC-88, [5-[[(4-Methoxy-2,6-dimethyl-phenyl)sulfonyl]-methyl]-[1,2,4]oxadiazol-3-yl]-[3-[(4-methyl-piperazin-1-yl)-methyl]-pyrrolidin-1-yl]-methanon], the inhibition at 10 µM amounted to 100%.
Consider `COc1cc(C)c(S(=O)(=O)Cc2nc(C(=O)N(C)[C@H]3CCC[C@@H](N4CCN(C)CC4)C3)no2)c(C)c1` [SC-89, 5-[[(4-Methoxy-2,6-dimethyl-phenyl)sulfonyl]-methyl]-N-methyl-N-[(1S,3R)-3-(4-methyl-piperazin-1-yl)-cyclohexyl]-[1,2,4]oxadiazol-3-carbonsäure amid], for which the inhibition at 10 µM turned out to be 100%.
Regarding `COc1cc(C)c(S(=O)(=O)Cc2c(C)nn(CC(=O)N3CCC(CN4CCN(C)CC4)C3)c2C)c(C)c1` (stereo not drawn) [SC-92, 2-[4-[[(4-Methoxy-2,6-dimethyl-phenyl)sulfonyl]-methyl]-3,5-dimethyl-1H-pyrazol-1-yl]-1-[3-[(4-methyl-piperazin-1-yl)-methyl]-pyrrolidin-1-yl]-ethanon], the inhibition at 10 µM is 90%.
`COc1cc(C)c(S(=O)(=O)Cc2cn(CC(=O)N3CCC(CN4CCN(C)CC4)C3)nn2)c(C)c1` (stereo not drawn) [SC-93, 2-[4-[[(4-Methoxy-2,6-dimethyl-phenyl)sulfonyl]-methyl]-1H-[1,2,3]triazol-1-yl]-1-[3-[(4-methyl-piperazin-1-yl)-methyl]-pyrrolidin-1-yl]-ethanon]: the inhibition at 10 µM was 100%.
Take “N-[1-(4-Fluor-cyclohexyl)-3,3-dimethyl-piperidin-4-yl]-2-[3-[[(4-methoxy-2,6-dimethyl-phenyl)sulfonyl]-methyl]-[1,2,4]oxadiazol-5-yl]-acetamid [SC-48]”: the “% Inhibierung (human B1R) bei 10 µM” value came to 100%.
For “N-[4-(Cyclopropylamino)-2,2-dimethyl-cyclohexyl]-2-[3-[[(2,3-dichlor-phenyl)sulfonyl]-methyl]-[1,2,4]oxadiazol-5-yl]-acetamid [CC-123]”, the “% Inhibierung (human B1R) bei 10 µM” value was determined as 99%.
